Values quoted from earlier work, collected in patent US20250051594A1, “INKJET INK” (KYOCERA DOCUMENT SOLUTIONS INC., priority 2023, published 2025).

Conditions: octanol/water partition coefficient of the organic solvent

LogKow | SMILES
−1.75 | OCCOCCOCCO [Triethylene glycol]
−1.53 | CCCOC(C)COC(C)CO (centres unmarked) [Dipropylene glycol monopropylether]
−1.76 | OCC(O)CO [Glycerin]
−1.36 | CCCCOCC(C)O (centres unmarked) [Propylene glycol monobutylether]
−1.20 | CCCCOCCOCCOC [Diethylene glycolbutylmethylether]
−1.24 | COC(C)COC(C)COC(C)CO (centres unmarked) [Tripropylene glycol monomethylether]
−0.92 | CC(O)CO (centres unmarked) [PG, propylene glycol]

SMILES | LogKow
COCCOCCO [Diethylene glycol monomethylether] | −1.18
OCCOCCO [Diethylene glycol] | −1.47
OCCCO [1,3-propanediol] | −1.04
COCCOCCOCCO [Triethylene glycol monomethylether] | −1.46
CCCCOCCOCC [EBEE, ethylene glycol butylethylether] | −1.88

Same assay, conditions: octanol/water partition coefficient of the organic solvent; listed as ethylene glycolbutylethylether

SMILES | LogKow
CCCCOCCOCC [EBEE, ethylene glycol butylethylether] | lower than −1.80

Same assay, conditions: octanol/water partition coefficient of the organic solvent; listed as propylene glycol

LogKow | SMILES
higher than −1.00 | CC(O)CO (centres unmarked) [PG, propylene glycol]
